Broadly, the pIC50 is −log10 of the IC50, conventionally taken in molar units. A word on the IC50: it is the point on the concentration scale where inhibition reaches its midpoint.

Molecules are shown by their SMILES. pIC50: −log10 of the molar value. Like-named read-outs stand apart in the source and are kept apart here.

The record followed here is patent US11186564B2, “Dual NAV1.2/5HT2a inhibitors for treating CNS disorders” (Sunovion Pharmaceuticals Inc., priority 2016, dated 2021).

The target in experiment [1] is human sodium channel NaV1.2 (Homo sapiens, UniProt Q99250). Put plainly: NaV1.2 inhibition, automated patch-clamp (Q-Patch HTX), slow inactivated state (state C). To be noted: for inhibition at 10 µM: read-out: NaV1.2 (% inh), 10 μM; for pIC50: read-out: NaV1.2 IC50; for inhibition at 1 µM: 1 μM compound, read-out: NaV1.2 (% inh), 1 μM. It counts as cell-based. The procedure, abridged:
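CHO K-1 cells stably expressing human NaV1.2, whole-cell automated patch clamp, holding −100 mV; slow-inactivated state (state C) read at a 5 ms step to 0 mV after 10 s at −50 mV and 15 ms at −90 mV. Percent inhibition vs vehicle; IC50 by nonlinear least-squares fit.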
(In general: The patch-clamp technique gives a direct electrical read-out from membranes.)

Experiment [2] deals with T1, recombinant human serotonin receptor 5-HT2A (Homo sapiens, UniProt P28223).
T1 construct: expressed in transfected cells; method B: loaded with Ca2+ dye
T1 sequence (P28223 whole entry): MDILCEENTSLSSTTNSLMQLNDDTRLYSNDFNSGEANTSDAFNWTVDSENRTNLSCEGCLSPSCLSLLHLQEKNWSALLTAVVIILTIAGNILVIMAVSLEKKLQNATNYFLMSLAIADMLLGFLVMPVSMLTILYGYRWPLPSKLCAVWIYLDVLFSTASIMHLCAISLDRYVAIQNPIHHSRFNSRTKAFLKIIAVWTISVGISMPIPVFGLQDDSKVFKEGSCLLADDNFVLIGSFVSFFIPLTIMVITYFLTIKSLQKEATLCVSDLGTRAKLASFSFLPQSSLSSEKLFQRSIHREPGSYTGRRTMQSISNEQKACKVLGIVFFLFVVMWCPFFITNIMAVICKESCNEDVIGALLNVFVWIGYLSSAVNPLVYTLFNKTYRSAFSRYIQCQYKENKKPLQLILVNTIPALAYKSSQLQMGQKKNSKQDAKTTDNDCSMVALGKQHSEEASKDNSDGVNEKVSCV
The experiment can be described thus: 5-HT2A antagonist Ca2+ assay in CHO-K1 cells (method A aequorin luminescence / method B FLIPR fluorescence). It counts as cell-based. To be noted: antagonist mode vs EC80 of reference agonist, method A or B; for pIC50: read-out: 5HT2A IC50; for IC50: 5HT2A IC50, μM. The procedure, abridged:
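Method A: CHO-K1 cells co-expressing human 5-HT2A and mitochondrial apoaequorin were given reference agonist at EC80 15 min after compound, with luminescence read. Method B: dye-loaded 5-HT2A CHO-K1 cells were pretreated with compound, then given serotonin at EC80, with FLIPR fluorescence read. IC50s came from nonlinear fits of percent inhibition.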

[3] abbreviates: 10 μM compound, hNaV1.2 CHO cells, slow inactivated state.
[4] abbreviates: hNaV1.2 CHO cells, slow inactivated state.

human sodium channel NaV1.2, sequence (Q99250 whole entry): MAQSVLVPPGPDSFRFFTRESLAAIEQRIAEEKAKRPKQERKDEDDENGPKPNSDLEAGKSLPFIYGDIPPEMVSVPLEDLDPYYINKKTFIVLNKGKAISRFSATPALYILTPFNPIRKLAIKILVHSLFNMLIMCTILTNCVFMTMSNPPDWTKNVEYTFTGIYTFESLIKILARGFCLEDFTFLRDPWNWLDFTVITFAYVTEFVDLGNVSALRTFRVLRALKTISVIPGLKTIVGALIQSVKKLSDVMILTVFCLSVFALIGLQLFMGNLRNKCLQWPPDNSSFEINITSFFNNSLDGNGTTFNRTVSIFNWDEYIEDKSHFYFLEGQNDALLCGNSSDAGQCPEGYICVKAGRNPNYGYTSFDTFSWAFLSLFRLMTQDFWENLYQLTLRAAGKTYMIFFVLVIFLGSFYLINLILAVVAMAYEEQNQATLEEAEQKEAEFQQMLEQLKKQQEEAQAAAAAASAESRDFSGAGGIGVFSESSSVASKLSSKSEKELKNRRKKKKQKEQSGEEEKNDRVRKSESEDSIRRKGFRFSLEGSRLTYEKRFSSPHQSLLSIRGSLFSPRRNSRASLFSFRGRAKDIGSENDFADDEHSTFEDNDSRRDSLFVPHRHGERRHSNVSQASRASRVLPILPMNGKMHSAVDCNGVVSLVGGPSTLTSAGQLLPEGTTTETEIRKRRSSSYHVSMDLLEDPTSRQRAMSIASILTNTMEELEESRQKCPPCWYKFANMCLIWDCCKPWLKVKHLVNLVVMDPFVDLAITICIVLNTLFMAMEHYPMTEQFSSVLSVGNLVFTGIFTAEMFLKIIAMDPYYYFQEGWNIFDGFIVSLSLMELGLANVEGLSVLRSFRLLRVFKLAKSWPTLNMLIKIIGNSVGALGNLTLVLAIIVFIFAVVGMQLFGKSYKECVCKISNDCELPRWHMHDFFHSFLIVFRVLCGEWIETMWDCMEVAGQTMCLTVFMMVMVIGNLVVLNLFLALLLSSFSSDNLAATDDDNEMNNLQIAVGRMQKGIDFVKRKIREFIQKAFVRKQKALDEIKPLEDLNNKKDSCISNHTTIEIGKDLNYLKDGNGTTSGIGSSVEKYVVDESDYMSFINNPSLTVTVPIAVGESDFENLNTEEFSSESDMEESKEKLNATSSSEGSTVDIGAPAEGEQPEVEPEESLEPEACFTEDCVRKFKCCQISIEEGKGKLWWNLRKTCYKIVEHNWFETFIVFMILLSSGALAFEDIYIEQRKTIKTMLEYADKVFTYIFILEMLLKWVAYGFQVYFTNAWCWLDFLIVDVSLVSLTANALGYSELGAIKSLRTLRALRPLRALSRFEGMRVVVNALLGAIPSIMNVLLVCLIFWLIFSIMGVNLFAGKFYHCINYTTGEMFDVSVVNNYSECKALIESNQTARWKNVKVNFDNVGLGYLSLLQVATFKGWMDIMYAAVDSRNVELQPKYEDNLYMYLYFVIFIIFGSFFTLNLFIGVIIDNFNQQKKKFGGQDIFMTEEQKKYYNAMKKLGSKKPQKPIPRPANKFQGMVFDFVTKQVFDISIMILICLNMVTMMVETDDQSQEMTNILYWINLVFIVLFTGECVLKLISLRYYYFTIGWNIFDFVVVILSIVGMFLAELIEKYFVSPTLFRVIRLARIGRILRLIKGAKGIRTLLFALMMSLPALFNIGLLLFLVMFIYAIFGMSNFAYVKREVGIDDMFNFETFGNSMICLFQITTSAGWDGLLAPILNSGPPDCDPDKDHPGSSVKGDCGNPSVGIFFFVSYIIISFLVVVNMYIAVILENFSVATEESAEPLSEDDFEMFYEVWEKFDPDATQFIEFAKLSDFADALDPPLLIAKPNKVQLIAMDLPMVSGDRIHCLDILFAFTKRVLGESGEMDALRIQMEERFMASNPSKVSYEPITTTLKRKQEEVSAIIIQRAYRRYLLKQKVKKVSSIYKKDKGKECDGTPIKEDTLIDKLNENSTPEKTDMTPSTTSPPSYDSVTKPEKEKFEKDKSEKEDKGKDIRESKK

Consider `OC(COC1CCCCC1)CN1C[C@H]2C[C@@H](C1)N2c1ccccc1` (stereo partly drawn) [Example 294, 1-(cyclohexyloxy)-3-((1R,5S)-6-phenyl-3,6-diazabicyclo[3.1.1]heptan-3-yl)propan-2-ol], for which the inhibition at 10 µM in experiment [1] (setting [3]) stood at 47%. The pIC50 in experiment [2] was 6.55.

On to `COc1cccc(CCN2CCC3(CCc4ccccc4O3)CC2)c1` [Example 429, 1′-(3-methoxyphenethyl) spiro[chromane-2,4′-piperidine]], for which the values for the pIC50 in experiment [1] (setting [4]) and in experiment [2] were 5.87 and 6.43, respectively.

`c1ccc(O[C@@H]2COC3(C2)CN(C[C@@H]2CCc4ccccc42)C3)cc1` (single isomer, unassigned) [Compound 364]: the pIC50 in experiment [1] (setting [4]) was 6.16; in experiment [2], 7.10.

As for `COc1ccccc1N1CCC2(CCN(CC3CCc4ccccc43)C2)C1` (centres unmarked) [Example 335, 2-((2,3-dihydro-1H-inden-1-yl)methyl)-7-(2-methoxyphenyl)-2,7-diazaspiro[4.4]nonane], the values for the pIC50 in experiment [1] (setting [4]) and in experiment [2] were 6.92 and 7.40, respectively.

For the compound `COc1ccc2c(c1)C(CN1CC3CC(C1)N(c1ccccc1)C3)CC2` (centres unmarked) [Example 328, 3-((6-methoxy-2,3-dihydro-1H-inden-1-yl)methyl)-6-phenyl-3,6-diazabicyclo[3.2.1]octane], in experiment [1] (setting [4]), the inhibition at 1 µM stood at 31%. For the same compound, the pIC50 in experiment [2] was 5.27.

With `O=C1c2ccccc2CCN1CCN1CCC2(CCc3ccccc3O2)CC1` [Example 422, 2-(2-(spiro[chromane-2,4′-piperidin]-1′-yl)ethyl)-3,4-dihydroisoquinolin-1(2H)-one], the pIC50 is 6.40 in experiment [1] (setting [4]) and 7.15 in experiment [2].

`O=C1c2cc(Cl)ccc2CCCN1CCN1CCC(Oc2ccc(F)cc2)CC1` [Example 209, 8-chloro-2-(2-(4-(4-fluorophenoxy)piperidin-1-yl)ethyl)-2,3,4,5-tetrahydro-1H-benzo[c]azepin-1-one]: the pIC50 was 6.57 in experiment [1] (setting [4]) and 7.70 in experiment [2].

As to `COc1ccc2c(c1)C(CN1CCC3(CC1)OCc1ccccc13)CC2` (centres unmarked) [Example 390, 1′-((6-methoxy-2,3-dihydro-1H-inden-1-yl)methyl)-3H-spiro[isobenzofuran-1,4′-piperidine]], the pIC50 was 6.23 in experiment [1] (setting [4]) and 6.12 in experiment [2].

For `C[C@@H]1C[C@@]2(CCc3ccccc3O2)CCN1CCN1CCc2ccccc2C1=O` [Example 426, 2-(2-((2R,2′R)-2′-methylspiro[chromane-2,4′-piperidin]-1′-yl)ethyl)-3,4-dihydroisoquinolin-1(2H)-one], the inhibition at 1 µM in experiment [1] (setting [4]) was found to be 41%. For the same compound, the negative-log IC50 (pIC50) in experiment [2] is 6.80.

Turning to `O[C@@H](COC1CCCCC1)CN1[C@@H]2CC[C@H]1CN(c1ccccc1)C2` [Example 288, (R)-1-(cyclohexyloxy)-3-((1R,5S)-3-phenyl-3,8-diazabicyclo[3.2.1]octan-8-yl)propan-2-ol], in experiment [1] (setting [4]), the pIC50 is 6.36. For the same compound, the half-maximal inhibitory concentration (IC50) in experiment [2] was 0.04 µM.

Regarding `Cc1ccc(N2CCN(C[C@@H](O)COC3CCCCC3)CC2)cc1` [Example 78, (R)-1-(cyclohexyloxy)-3-(4-(p-tolyl)piperazin-1-yl)propan-2-ol], the values for the pIC50 in experiment [1] (setting [4]) and in experiment [2] were 5.33 and less than 5.00, respectively.

As for `COc1ccccc1OC1CCC2(CCN(CC3CCc4cccnc43)C2)C1` (centres unmarked) [Example 373, 2-((6,7-dihydro-5H-cyclopenta[b]pyridin-7-yl)methyl)-7-(2-methoxyphenoxy)-2-azaspiro[4.4]nonane], the pIC50 was 5.62 in experiment [1] (setting [4]) and 6.36 in experiment [2].

Turning to `c1ccc2c(c1)CCC1(CCN(CC3Cc4cccnc4C3)CC1)O2` (centres unmarked) [Example 411, 1′-((6,7-dihydro-5H-cyclopenta[b]pyridin-6-yl)methyl)spiro[chromane-2,4′-piperidine]], in experiment [1] (setting [4]), the inhibition at 1 µM was 37%. The pIC50 in experiment [2] was 5.92.

Regarding `OC(COC1CCCc2ccccc21)CN1CCN(Cc2ccccc2)CC1` (centres unmarked) [Example 83, 1-(4-benzylpiperazin-1-yl)-3-((1,2,3,4-tetrahydronaphthalen-1-yl)oxy) propan-2-ol], the pIC50 is 7.70 in experiment [1] (setting [4]) and 5.54 in experiment [2].

`OC(COC1CCCCC1)CN1CCC2(CC1)OCc1ccccc12` (centres unmarked) [Example 393, 1′-(cyclohexyloxy)-3-(3H-spiro[isobenzofuran-1,4′-piperidin]-1′-yl)propan-2-ol]: in experiment [1] (CHO), the inhibition at 10 µM came to 93%. Further, the IC50 in experiment [2] was 1.8 µM.

Consider `O=C1CC2(CCN(CC3CCc4ccccc43)C2)Oc2ccccc21` (centres unmarked) [Example 388, 1′-((2,3-dihydro-1H-inden-1-yl)methyl)spiro[chromane-2,3′-pyrrolidin]-4-one], for which the pIC50 in experiment [1] (setting [4]) was 5.76; in experiment [2], 6.66.

Regarding `O=C1c2ccccc2CCN1CCN1C[C@@H]2CC[C@H]1CN2c1ccccc1` [Example 316, 2-(2-((1S,4S)-5-phenyl-2,5-diazabicyclo[2.2.2]octan-2-yl)ethyl)-3,4-dihydroisoquinolin-1(2H)-one], the pIC50 is 7.10 in experiment [1] (setting [4]) and 5.50 in experiment [2].

`O=C1CCC(c2ccc(F)cc2)=NN1CN1CCC(Oc2ccc(F)cc2)CC1` [Example 167, 2-((4-(4-fluorophenoxy)piperidin-1-yl)methyl)-6-(4-fluorophenyl)-4,5-dihydropyridazin-3(2H)-one]: in experiment [1] (setting [4]), the inhibition at 1 µM is 13%. Besides, in experiment [2], the pIC50 was 7.05.

`O=C1c2ccccc2CCN1CCCN1CCC(Oc2cccnc2)CC1` [Example 220, 2-(3-(4-(pyridin-3-yloxy)piperidin-1-yl)propyl)-3,4-dihydroisoquinolin-1(2H)-one]: the inhibition at 10 µM in experiment [1] (setting [3]) came out at 12%. In addition, the pIC50 in experiment [2] is 6.31.

`Fc1ccc(O[C@@H]2CCCN(CC3CCc4ccccc43)C2)cc1` (stereo partly drawn) [Example 253, (3R)-1-((2,3-dihydro-1H-inden-1-yl)methyl)-3-(4-fluorophenoxy) piperidine]: in experiment [1] (setting [4]), the inhibition at 1 µM worked out at 21%. In addition, the pIC50 in experiment [2] was 5.93.

Regarding `Fc1ccc(OC2CCN(CCC3CCc4cccnc43)CC2)cc1` (centres unmarked) [Example 175, 7-(2-(4-(4-fluorophenoxy)piperidin-1-yl)ethyl)-6,7-dihydro-5H-cyclopenta[b]pyridine], the pIC50 is 6.36 in experiment [1] (setting [4]) and 8.00 in experiment [2].

For the compound `O[C@@H](CO[C@@H]1CCCc2ccccc21)CN1CC[C@@H](Oc2ccc(F)cc2)C1` [Example 53, (R)-1-((R)-3-(4-fluorophenoxy)pyrrolidin-1-yl)-3-(((R)-1,2,3,4-tetrahydronaphthalen-1-yl)oxy)propan-2-ol], the negative-log IC50 (pIC50) in experiment [1] (setting [4]) was 5.71; in experiment [2], 6.64.

As to `O=C1c2ccccc2CCN1CCN1CCN(c2ccccc2)CC1` [Example 63, 2-(2-(4-phenylpiperazin-1-yl)ethyl)-3,4-dihydroisoquinolin-1(2H)-one], the inhibition at 1 µM in experiment [1] (setting [4]) is 16%. For the same compound, the pIC50 in experiment [2] was 6.35.

Take `O=C(CN1CCC(Oc2ccc(F)cc2)CC1)C1CCc2ccccc21` (centres unmarked) [Example 215, 1-(2,3-dihydro-1H-inden-1-yl)-2-(4-(4-fluorophenoxy)piperidin-1-yl)ethan-1-one]: in experiment [1] (setting [4]), the inhibition at 1 µM is 25%. Besides, in experiment [2], the pIC50 was 6.72.

On to `COc1ccc2c(c1)C(CN1CCC(Oc3ccccc3C#N)CC1)CC2` (centres unmarked) [Example 98, 2-((1-((6-methoxy-2,3-dihydro-1H-inden-1-yl)methyl)piperidin-4-yl)oxy)benzonitrile], for which the inhibition at 1 µM in experiment [1] (setting [4]) worked out at 37%. Also, the pIC50 in experiment [2] is 8.00.
